Measured values: patent US10980765B2, “Isothiocyanatostilbenes as a novel method and product for treating cancer” (BOARD OF SUPERVISORS OF LOUISIANA STATE UNIVERSITY AND …, priority 2015, dated 2021)

How the values were obtained:
c-Met [1] = molecular target: T1, c-Met (Homo sapiens, UniProt P08581); experiment: Western blot of c-Met activation (phospho-c-Met) by HGF in cancer cell lines; assay type: cell-based; set-up: endogenous in cells; host or cells: DU145, PC3, MDA-MB-231, HCC1806
Procedure: (§1) Western blot was used to analyze pMet expression. […] Western blot was used to analyze the indicated proteins.
(§2) Western blot was used to analyze the indicated proteins.
as §2
(§3) Western blot analysis: Cells were grown to ˜70% confluency prior to treatment. Cells were serum-starved in serum-free media for 30 minutes prior to treatment in complete media or serum-free media for the indicated times. Cell lysates were collected in Laemmli (125 mM Tris, 4% SDS, 0.01% bromophenol blue, 30% sucrose) containing 0.5% β-mercaptoethanol and boiled ˜8 minutes. Primary antibodies include: phospho-c-Met (Y1234/1235), phospho-Akt (S473), pEGFR […], pIGF-IRβ (Y1135/1136) (Cell Signaling Technology; Beverly, Mass.); α-actin (Sigma-Aldrich), c-Met (C-28) (Life Technologies). Secondary antibodies include: horseradish peroxidase-conjugated anti-rabbit and anti-mouse (GE Healthcare; Pittsburgh, Pa.). ECL 2 was used for chemiluminescent detection (Thermo Scientific; Rockford, Ill.). Densitometry was calculated using ImageJ (NIH).

wild-type c-Met = wild-type c-Met (Homo sapiens, UniProt P08581); experiment: Phosphorylation inhibition assay (Z′-LYTE Kinase Assay-Tyr6 Peptide), wild-type c-Met; assay type: biochemical
Procedure: as §1
Phosphorylation inhibition assay: Z′-LYTE™ Kinase Assay-Tyr6 Peptide kit (Invitrogen) was used to assess the ability of tested compounds to inhibit c-Met phosphorylation. […] After 1 hour incubation at room temperature, 10 μl development solution containing site-specific protease was added to each well. Incubation was continued for 1 hour. The reaction was then stopped, and the fluorescent signal ratio of 445 nm (coumarin)/520 nm (fluorescein) was determined on a plate reader (BioTek FLx800™), which reflects the peptide substrate cleavage status and/or the kinase inhibitory activity in the reaction. […] The IC50 value for each compound was calculated by nonlinear regression of log concentration versus % c-Met phosphorylation ±S.E.M., implemented in GraphPad Prism version 5.0 (GraphPad Software, CA, USA).

c-Met [2] = molecular target: T1, c-Met; experiment: Western blot of pMet in c-Met amplified H1993 lung cancer cells without HGF; assay type: cell-based; set-up: endogenous in cells; conditions: 5 μM compound; no HGF, constitutive c-Met activation
Procedure: as §1
H1993 cells have c-Met amplification such that they have high levels of pMet, even in the absence of HGF, due to constitutive c-Met dimerization and autophosphorylation.
as §3

EGFR = molecular target: T2, EGFR (Homo sapiens, UniProt P00533); experiment: Western blot of EGFR activation by EGF in DU145 cells; assay type: cell-based; conditions: 4 μM DIDS or 25 μM H2DIDS; DU145, 100 ng/ml EGF 20 min
T2 construct: endogenous in cells; host or cells: DU145
Procedure: as §3

DU145 cells [3] = experiment: Scattering assay; assay type: cell-based; conditions: 4 μM DIDS or 25 μM H2DIDS
Procedure: (§4) Cells were fixed and stained for actin. Representative images are shown. […] Data are shown as mean±S.E.M.; n=3.
Cells were fixed and stained for actin. Representative images are shown.
Scattering assay: DU145 cells were grown to ˜50% confluency. […] Cells were fixed with 4% paraformaldehyde and stained with Oregon Green 488 phalloidin (Invitrogen; Carlsbad, Calif.). Images were acquired on an Eclipse TE300 inverted microscope (Nikon; Tokyo, Japan) with NIS Elements version 4.13.04 software. Presented images were taken using a 10× objective.

IGFR = molecular target: T3, IGFR (Homo sapiens, UniProt P08069); experiment: Western blot of IGFR activation by IGF in DU145 cells; assay type: cell-based; conditions: 4 μM DIDS or 25 μM H2DIDS; DU145, 100 ng/ml IGF 20 min
T3 construct: endogenous in cells; host or cells: DU145
Procedure: as §3

Cells = experiment: 2D proliferation (Cell Titer Blue); assay type: cell-based; conditions: 24-72 hours
Procedure: A TO timepoint was also measured. For each timepoint, cells were exposed to Cell Titer Blue reagent (Promega) for 1 hour at 37° C. 5% CO2. Experiments were performed with quadruplicate replicates. Fluorescence was measured using a BioTek Synergy 4 plate reader with Gen5 software.

DU145 cells [4] = experiment: Invasion through Matrigel; assay type: cell-based; conditions: indicated concentrations; 33 ng/mL HGF; Matrigel 1:5
Procedure: (§5) For invasion (FIGS. 4C and 4D), wounded cells were overlaid with Matrigel diluted 1:5 in serum-free media; n=3.
(§6) Wound healing and invasion: DU145 cells were grown to ˜100% confluency prior to wounding with the IncuCyte™ WoundMaker™ (Essen Bioscience; Ann Arbor, Mich.) and washed once with complete media. For invasion, cells were covered with Matrigel diluted 1:5 in serum-free RPMI following wounding. […] Images were taken every 4 hours with the IncuCyte™ ZOOM imaging system (Essen Bioscience). Quadruplicate replicates were used in each experiment. Data are presented as percent wound density ±standard error of the mean (S.E.M.).

DU145 spheroids = experiment: 3D spheroid proliferation; assay type: cell-based; conditions: 33 ng/mL HGF, Matrigel, 72 hours
Procedure: Data are shown as the percent change in growth from T=0 to T=72 hours. For each of the six independent variables in each bar graph, a representative image at the 72 hour time point is shown. The six corresponding images below each respective bar graph
3D spheroid proliferation: Prior to seeding, cells were incubated with 2.5 ng/μl CellTracker Red (Life Technologies) in complete DMEM lacking Phenol Red for 5 minutes at room temperature then centrifuged at 1000 RPM for 5 minutes. […] The mixture of cells, treatments, and Matrigel in complete media was seeded at 2000 cells/well in a 96 well plate. The plate was centrifuged at 1000 RPM for 3 minutes to collect the cells into the bottom of the plate. Spheroid growth was imaged for up to 80 hours and analyzed for average red object area using the IncuCyte™ ZOOM software. Data are shown as percent change in spheroid growth between TO and […] with HGF normalized to 100% change in growth. Images were captured by the IncuCyte™ ZOOM imaging system and representative 10× images are shown.

DU145 cells [5] = experiment: Wound healing; assay type: cell-based
Procedure: as §4, §5, §6

T1 sequence (P08581 25-1390): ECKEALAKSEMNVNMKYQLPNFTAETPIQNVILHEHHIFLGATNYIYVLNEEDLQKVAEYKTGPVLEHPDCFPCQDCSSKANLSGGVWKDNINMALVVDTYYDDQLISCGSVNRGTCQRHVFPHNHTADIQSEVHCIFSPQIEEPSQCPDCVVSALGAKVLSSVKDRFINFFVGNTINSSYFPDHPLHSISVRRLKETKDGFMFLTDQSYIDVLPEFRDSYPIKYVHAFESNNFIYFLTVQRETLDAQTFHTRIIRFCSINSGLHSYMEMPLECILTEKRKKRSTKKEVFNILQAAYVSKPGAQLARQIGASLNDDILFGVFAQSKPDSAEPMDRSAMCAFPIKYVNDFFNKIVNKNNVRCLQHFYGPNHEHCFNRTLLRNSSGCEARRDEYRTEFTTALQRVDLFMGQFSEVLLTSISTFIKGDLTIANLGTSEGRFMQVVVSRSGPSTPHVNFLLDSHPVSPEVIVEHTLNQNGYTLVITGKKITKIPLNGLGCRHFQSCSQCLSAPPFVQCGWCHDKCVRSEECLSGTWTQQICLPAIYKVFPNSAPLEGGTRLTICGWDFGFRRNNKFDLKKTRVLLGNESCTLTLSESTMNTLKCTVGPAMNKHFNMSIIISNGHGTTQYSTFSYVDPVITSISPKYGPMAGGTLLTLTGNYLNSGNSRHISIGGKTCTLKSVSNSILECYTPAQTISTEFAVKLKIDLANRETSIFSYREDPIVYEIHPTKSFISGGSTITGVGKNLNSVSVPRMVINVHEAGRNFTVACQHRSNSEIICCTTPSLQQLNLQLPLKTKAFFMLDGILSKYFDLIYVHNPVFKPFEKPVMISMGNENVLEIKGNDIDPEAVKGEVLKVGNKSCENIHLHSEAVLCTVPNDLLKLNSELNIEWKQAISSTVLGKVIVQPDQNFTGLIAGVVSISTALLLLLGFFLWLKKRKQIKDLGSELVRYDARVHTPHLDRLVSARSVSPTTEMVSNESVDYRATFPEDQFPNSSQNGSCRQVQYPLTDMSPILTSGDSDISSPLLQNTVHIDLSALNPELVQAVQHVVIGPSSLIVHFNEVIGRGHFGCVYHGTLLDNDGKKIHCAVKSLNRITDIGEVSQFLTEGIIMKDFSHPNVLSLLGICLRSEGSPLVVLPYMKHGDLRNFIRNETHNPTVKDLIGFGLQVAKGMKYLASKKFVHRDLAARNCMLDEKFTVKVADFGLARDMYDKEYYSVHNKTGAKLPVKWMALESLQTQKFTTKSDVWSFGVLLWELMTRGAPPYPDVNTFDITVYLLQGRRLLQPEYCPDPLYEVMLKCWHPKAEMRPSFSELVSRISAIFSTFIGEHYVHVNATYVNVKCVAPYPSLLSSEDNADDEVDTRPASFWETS
Sequence of wild-type c-Met (P08581 25-1390): as above
T2 sequence (P00533 25-1210): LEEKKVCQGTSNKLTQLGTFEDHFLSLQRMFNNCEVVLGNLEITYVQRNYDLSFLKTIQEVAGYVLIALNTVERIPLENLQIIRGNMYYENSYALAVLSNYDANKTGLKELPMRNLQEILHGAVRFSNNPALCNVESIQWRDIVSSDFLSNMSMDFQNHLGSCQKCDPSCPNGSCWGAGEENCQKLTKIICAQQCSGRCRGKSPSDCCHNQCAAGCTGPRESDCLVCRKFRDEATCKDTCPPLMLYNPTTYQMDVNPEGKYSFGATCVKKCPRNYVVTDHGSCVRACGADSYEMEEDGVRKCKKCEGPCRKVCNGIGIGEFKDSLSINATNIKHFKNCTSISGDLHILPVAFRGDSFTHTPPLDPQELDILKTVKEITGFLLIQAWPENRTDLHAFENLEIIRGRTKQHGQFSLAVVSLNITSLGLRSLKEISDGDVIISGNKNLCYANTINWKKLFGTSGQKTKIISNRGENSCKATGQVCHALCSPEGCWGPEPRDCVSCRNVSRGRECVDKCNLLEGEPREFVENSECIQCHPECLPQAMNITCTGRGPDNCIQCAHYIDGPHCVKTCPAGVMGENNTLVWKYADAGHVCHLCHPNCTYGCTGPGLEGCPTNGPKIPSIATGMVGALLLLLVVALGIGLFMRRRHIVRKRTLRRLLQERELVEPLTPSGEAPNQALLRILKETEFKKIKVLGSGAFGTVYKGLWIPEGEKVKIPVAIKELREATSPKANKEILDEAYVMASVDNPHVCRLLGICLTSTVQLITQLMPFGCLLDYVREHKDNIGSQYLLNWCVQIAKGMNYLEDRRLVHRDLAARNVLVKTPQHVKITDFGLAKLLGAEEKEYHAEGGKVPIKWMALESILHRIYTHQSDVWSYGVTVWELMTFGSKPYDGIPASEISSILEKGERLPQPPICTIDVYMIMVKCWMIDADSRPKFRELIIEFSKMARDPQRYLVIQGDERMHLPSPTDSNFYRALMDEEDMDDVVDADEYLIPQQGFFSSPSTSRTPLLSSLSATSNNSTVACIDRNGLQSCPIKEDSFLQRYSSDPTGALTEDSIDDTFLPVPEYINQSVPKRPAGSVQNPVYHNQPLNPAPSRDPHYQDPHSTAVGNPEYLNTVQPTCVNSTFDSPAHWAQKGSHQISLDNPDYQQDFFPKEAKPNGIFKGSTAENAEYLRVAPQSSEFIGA

O=[N+]([O-])c1ccc(C=Cc2ccc([N+](=O)[O-])cc2S(=O)(=O)O)c(S(=O)(=O)O)c1 [DNDS, 4,4′-dinitrostilbene-2,2′-disulfonic acid]
inhibition at 2000 µM (c-Met [1]; DU-145, read-out: inhibition of c-Met): ~90%

Cc1[nH]c(/C=C2\C(=O)Nc3ccc(S(=O)(=O)N(C)c4cccc(Cl)c4)cc32)c(C)c1C(=O)N1CCN(C)CC1 [SU11274, reference compound]
reduction of c-Met phosphorylation (wild-type c-Met; 500 nM compound, kinase assay): ~70% | pMet levels in H1993 cells (c-Met [2]): ameliorated pMet levels

O=S(=O)(O)c1cc(N=C=S)ccc1CCc1ccc(N=C=S)cc1S(=O)(=O)O [H2DIDS, 4,4′-Diisothiocyanatodihydrostilbene-2,2′-disulfonic acid]
EGFR activation (EGFR): do not significantly reduce | HGF-induced cell scattering (DU145 cells [3]; 33 ng/ml HGF overnight): able to reduce HGF-induced | EGF-induced cell scattering (DU145 cells [3]; 100 ng/ml EGF overnight): not EGF-induced | IGFR activation (IGFR): do not significantly reduce | IC50, wild-type c-Met (wild-type c-Met; cell-free kinase assay, 200 μM ATP): low micromolar range | IC50 (wild-type c-Met; cell-free kinase assay, 200 μM ATP, read-out: IC50, wild-type c-Met): 3.6 µM | proliferation in complete media in 2D assay (Cells; complete media): minimal effects | serum-free proliferation in 2D assay (Cells; serum-free media): minimal effects | pMet levels in H1993 cells (c-Met [2]): much less significant effects | HGF-induced invasion through Matrigel (DU145 cells [4]): inhibited HGF-induced invasion through Matrigel in a dose-dependent manner | lowest concentration with some inhibitory effects on HGF-induced spheroid growth (DU145 spheroids): 40 nM | decrease of HGF-induced DU145 spheroid growth (DU145 spheroids; 5 μM compound): ~60% | HGF-induced wound healing (DU145 cells [5]; 4 μM DIDS or 25 μM H2DIDS, 33 ng/ml HGF): significantly reduced | EGF-mediated wound healing (DU145 cells [5]; 4 μM DIDS or 25 μM H2DIDS, 100 ng/ml EGF): minimal effects | HGF-induced wound healing, dose response (DU145 cells [5]; indicated concentrations, 33 ng/mL HGF): reduce HGF-induced wound healing in a dose response manner | reduction of c-Met activation (c-Met [1]; 8 μM compound, DU145 cells, 33 ng/ml HGF 20 min, serum-free, Western blot densitometry): ~90% | effective concentrations for reducing c-Met activation in 10% FBS (c-Met [1]; DU145 cells, 33 ng/ml HGF 20 min, 10% FBS RPMI, compared with serum-free): slightly higher effective concentrations | c-Met inhibitory effective doses (c-Met [1]; multiple cancer cell lines (summary)): low micromolar range

CC(=O)Nc1ccc(C=Cc2ccc(N=C=S)cc2S(=O)(=O)O)c(S(=O)(=O)O)c1 [SITS, 4-acetamido-4′-isothiocyanatostilbene-2,2′-disulfonic acid]
inhibition at 250 µM (c-Met [1]; DU-145, 250 μM compound, DU145 cells, 33 ng/ml HGF 20 min, serum-free): ~90%
